Results from ChEMBL document CHEMBL4480416, “Inducing Secondary Metabolite Production by Co-culture of the Endophytic Fungus Phoma sp. and the Symbiotic Fungus Armillaria sp” (2019).
Converted amounts (≈) assume the structure as drawn. The source made the active and inactive calls. No cut-off for these calls is given here.

Legend:
SMMC-7721 = test: Cytotoxicity against human SMMC7721 cells assessed as reduction in cell viability at 40 uM after 48 hrs by MTS assay; assay type: functional, cell-based
Bacillus subtilis = test: Antimicrobial activity against Bacillus subtilis at 0.5 to 256 ug/ml after 24 hrs by two-fold serial micro dilution method; assay type: functional
Escherichia coli = test: Antimicrobial activity against Escherichia coli at 0.5 to 256 ug/ml after 24 hrs by two-fold serial micro dilution method; assay type: functional
HL-60 = test: Cytotoxicity against human HL60 cells assessed as reduction in cell viability at 40 uM after 48 hrs by MTS assay; assay type: functional, cell-based
Staphylococcus aureus = test: Antimicrobial activity against Staphylococcus aureus at 0.5 to 256 ug/ml after 24 hrs by two-fold serial micro dilution method; assay type: functional
SW480 = test: Cytotoxicity against human SW480 cells assessed as reduction in cell viability at 40 uM after 48 hrs by MTS assay; assay type: functional, cell-based
A549 = test: Cytotoxicity against human A549 cells assessed as reduction in cell viability at 40 uM after 48 hrs by MTS assay; assay type: functional, cell-based
Candida albicans = test: Antifungal activity against Candida albicans at 0.5 to 256 ug/ml after 4 days by two-fold serial micro dilution method; assay type: functional, organism-based
MCF7 = test: Cytotoxicity against human MCF7 cells assessed as reduction in cell viability at 40 uM after 48 hrs by MTS assay; assay type: functional, cell-based

Compound: CCC[C@@H](O)[C@@H]1Oc2ccccc2[C@@H]1O
- Activity (SMMC-7721): inactive
- Activity (Bacillus subtilis): inactive
- Activity (Escherichia coli): inactive
- Activity (HL-60): inactive
- Activity (Staphylococcus aureus): inactive
- Activity (SW480): inactive
- Activity (A549): inactive
- Activity (Candida albicans): inactive
- Activity (MCF7): inactive

Compound: CCC[C@H](O)C/C=C/[C@@H](O)CCCC(=O)OCCCCCNC(C)=O
- Activity (SMMC-7721): inactive
- Activity (Bacillus subtilis): inactive
- Activity (Escherichia coli): inactive
- Activity (HL-60): inactive
- Activity (Staphylococcus aureus): inactive
- Activity (SW480): inactive
- Activity (A549): inactive
- Activity (Candida albicans): inactive
- Activity (MCF7): inactive

Compound: CCC[C@H](O)C/C=C/[C@@H](O)CCCC(=O)OC
- Activity (SMMC-7721): inactive
- Activity (Bacillus subtilis): inactive
- Activity (Escherichia coli): inactive
- Activity (HL-60): inactive
- Activity (Staphylococcus aureus): inactive
- Activity (SW480): inactive
- Activity (A549): inactive
- Activity (Candida albicans): inactive
- Activity (MCF7): inactive

Compound: CCC[C@H](O)C/C=C/[C@@H](O)CCCC(=O)OC[C@@H](O)CO
- Activity (SMMC-7721): inactive
- Activity (Bacillus subtilis): inactive
- Activity (Escherichia coli): inactive
- Activity (HL-60): inactive
- Activity (Staphylococcus aureus): inactive
- Activity (SW480): inactive
- Activity (A549): inactive
- Activity (Candida albicans): inactive
- Activity (MCF7): inactive

Compound: NYSTATIN
- MIC (Candida albicans): 4 µg/mL

Compound: CCCC[C@@H](O)[C@H](O)c1ccccc1O
- Activity (SMMC-7721): inactive
- Activity (Bacillus subtilis): inactive
- Activity (Escherichia coli): inactive
- Activity (HL-60): inactive
- Activity (Staphylococcus aureus): inactive
- Activity (SW480): inactive
- Activity (A549): inactive
- Activity (Candida albicans): inactive
- Activity (MCF7): inactive

Compound: NC[C@H]1O[C@H](O[C@H]2[C@H](O)[C@@H](O[C@H]3O[C@H](CO)[C@@H](O)[C@H](N)[C@H]3O)[C@H](N)C[C@@H]2N)[C@H](O)[C@@H](O)[C@@H]1O [KANAMYCIN]
- MIC (Bacillus subtilis): 4 µg/mL (≈ 8.26 µM)
- MIC (Escherichia coli): 8 µg/mL (≈ 16.5 µM)
- MIC (Staphylococcus aureus): 4 µg/mL (≈ 8.26 µM)
